Data from patent US20100105766A1, “COMPOSITION FOR INHIBITION OR PREVENTION OF BONE DENSITY REDUCTION” (Kirin Beer Kabushiki Kaisha, priority 2003, published 2010).
“Also recorded” adds a separate entry of the source.

Columns and labels:
[1] = test system: estrogen-responsive human breast cancer-derived MCF-7 cells; assay: Estrogen activity measured by cell growth of MCF-7 cells (Cell Counting Kit); assay type: cell-based; settings: for estrogen activity compared with the activity of estradiol: MCF-7 cell growth, relative to 17β-estradiol; for estrogen activity (cell growth of MCF-7 cells as index): 7 days of culture, absorbance at 450 nm
Description: The estrogen activity of the test compound was measured using as an index cell growth of estrogen-responsive human breast cancer-derived MCF-7 cells. The cell line used is one that expressed an estrogen receptor and enhanced cell growth in the presence of an estrogen-like substance. Therefore, the estrogen activity was measured by measuring the cell growth of the cell line with Cell Counting Kit (manufactured by DOJINDO LABORATORIES).
The measurement of cell growth of MCF-7 cells with the Cell Counting Kit was carried out by measuring the absorbance at 450 nm of formazane produced from a WST-1 reagent ([…], monosodium salt) incorporated in cells with a microplate reader (SOFTmax (manufactured by Molecular Devices Corporation)).
More specifically, MCF-7 cells were precultured for 3 days in a DMEM medium containing 10% of fetal calf serum (manufactured by Gibco), which had been treated using Dextran-Coated Charcoal (manufactured by Sigma) for adsorbing and removing endogenous steroids, and further containing penicillin and streptomycin (each 10000 units, 1 mg/ml, manufactured by Gibco), 0.1 mM nonessential amino acid (manufactured by Gibco), 1 mM sodium pyruvate (manufactured by Gibco), and 1 μg/ml insulin (human recombinant 27.5 USP unit/mg: (manufactured by Sigma)). A cell suspension having an MCF-7 cell concentration of 8×10^4 cells/ml was prepared and was seeded on a 96 well plate in an amount of 100 μl/well. One day after the initiation of the culture, the medium in the wells was replaced by a medium containing a test compound (0.1% (v/v)) dissolved in dimethylsulfoxide, and culture was continued. On the fourth day of the culture, the medium in the wells was again replaced by a fresh medium containing the test compound. On the seventh day of the culture, the cell growth was measured with Cell Counting Kit.
For purified isoxanthohumol and chemically synthesized 8-prenylnaringenin, the estrogen activity was measured in the same manner as in test 1, except that the concentrations of the test compound in the medium for MCF-7 cell culture were set as follows.
Isoxanthohumol was added so that the concentration of isoxanthohumol in the medium was 1.0×10^−5, 1.0×10^−6, 1.0×10^−7, 1.0×10^−8, 1.0×10^−9, and 1.0×10^−10 mol/L.

[2] = test system: ovariectomized female SD rats; assay: Amelioration of bone mineral density reduction after removal of ovaries (pQCT, femur), test 4; assay type: in vivo, rat; settings: oral 10 ml/kg once a day for 28 days, concentrations equal to those in beer (isoxanthohumol also 5-fold and 20-fold)
Description: Ovaries on both sides of 9-week old female SD rats were removed, and, from the next day of the ovary removal, the test compound was orally administered into the stomach through a stomach tube (liquid amount 10 ml/kg) once a day for 28 days.
For the control group and sham operation group, the 0.8% aqueous ethanol solution was orally administered in the same manner as in the test compound administration group. 17β-Estradiol was provided as a positive control and was subcutaneously administered at a dose of 4 μg/kg/day.
Beer (domestically produced pilsner beer) contained 2.1 mg/L isoxanthohumol and 43 μg/L 8-prenylnaringenin. Here this beer was once lyophilized and was then dissolved in water to remove ethanol to give a test compound which was then used in the test.
Isoxanthohumol was dissolved in a 0.8% aqueous ethanol solution so that, as compared with the concentration of isoxanthohumol contained in beer, the resultant solutions had 1-fold, 5-fold and 20-fold isoxanthohumol concentrations. […]
The bone mineral density was measured by dissecting the femur of rats and identifying the cancellous bone mineral density at the distal metaphysis bone end with a pQCT (Peripheral Quantitative computed tomography) bone mineral density measuring apparatus (XCT-960A, manufactured by Norland Stratec).

young Wistar female rats = assay: In vivo estrogen activity in immature rats (uterine weight), test 3-a; design: species or system rat; settings: oral 1, 5 or 25 mg/kg/day once a day for 3 days
Description: In vivo estrogen activity was evaluated using young Wistar female rats. The rats used were provided as follows. At the outset, 20-day old Wistar female rats (available from Charles River Japan, Inc.) were selected so that the difference in body weight among the animals was within ±10% of the average body weight. Thereafter, the animals were randomly grouped so that each group consisted of 6 animals. The animals were reared with free feeding of water and AlN-76A (manufactured by CLEA JAPAN INC.).
After preliminary rearing for one day, isoxanthohumol or 8-prenylnaringenin was forcibly orally administered into the stomach through a stomach tube at a dose of 1, 5, or 25 mg/kg/day (liquid amount 10 ml/kg) once a day for 3 days. For the control group, a solvent (peanut oil) was orally administered in the same manner as described, and for the positive control, 17β-estradiol was provided and was orally administered at a dose of 400 μg/kg/day in the same manner as described above. About 24 hr after the final administration, the uterine was harvested from the rats, and the weight of the uterine was measured to measure the in vivo estrogen activity.

[3] = test system: ovariectomized female SD rats; assay: In vivo estrogen activity in ovariectomized rats (uterine weight), test 3-b; design: species or system rat
Description: Ovaries on both sides of 9-week old female SD rats (available from Charles River Japan, Inc.) were removed, and the rats were randomly grouped so that each group consisted of 6 animals. The animals were reared with free feeding of water and AlN-76A (manufactured by CLEA JAPAN INC.). From the next day of the operation, the test compound was forcibly orally administered into the stomach through a stomach tube (liquid amount 10 ml/kg) once a day for 28 days.
Isoxanthohumol was dissolved in a 0.8% aqueous ethanol solution so that, as compared with the concentration of isoxanthohumol contained in beer, the resultant solutions had 1-fold, 5-fold and 20-fold isoxanthohumol concentrations. For the control group and sham operation group, the 0.8% aqueous ethanol solution was orally administered in the same manner as in the test compound administration group. 17β-Estradiol was provided as a positive control and was subcutaneously administered at a dose of 2 μg/kg/day.

bone resorption = settings: in vitro experiment, reported in the literature; cited from earlier work

Compound | estrogen activity compared with the activity of estradiol [1] | estrogen activity (cell growth of MCF-7 cells as index) [1] | amelioration of cancellous bone mineral density reduction in the femur [2] | in vivo estrogen activity (uterine weight increasing activity) (young Wistar female rats) | dose without uterine weight increasing activity relative to the dose that exhibited bone mineral density reduction inhibitory activity [3] | in vivo estrogen activity (recovery of uterine weight) ([3]; oral 10 ml/kg once a day for 28 days, 1-fold, 5-fold and 20-fold the concentration in beer) | bone resorption inhibitory effect (bone resorption)
CC(C)=CCc1c(O)cc(O)c2c1O[C@H](c1ccc(O)cc1)CC2=O [8-prenylnaringenin, reference compound] | 10^−2 time | had estrogen activity | This amelioration was not observed |  |  |  | 
COc1cc(O)c(CC=C(C)C)c2c1C(=O)CC(c1ccc(O)cc1)O2 (stereo not drawn) [isoxanthohumol] | about 10^−5 time | had estrogen activity; also recorded: has estrogen activity | confirmed to be effective; also recorded: better than the effect of xanthohumol; also recorded: significantly ameliorated; also recorded: significantly improved a bone mineral density reduction | did not have in vivo estrogen activity for immature rats or had only a very low level of activity; also recorded: did not exhibit uterine weight increasing activity; also recorded: uterine hypertrophy action was not observed | 20 times | significant recovery of the weight of the uterine was not observed; also recorded: did not exhibit uterine weight increasing activity | 
COc1cc(O)c(CC=C(C)C)c(O)c1C(=O)/C=C/c1ccc(O)cc1 [xanthohumol, reference compound] |  |  | any activity as in isoxanthohumol was not observed |  |  |  | proven to have bone resorption inhibitory effect
Humulons |  |  |  |  |  |  | proven to have bone resorption inhibitory effect
